Measurements taken from publication PMC5053523, “In Vitro Antibacterial Activity of Rhodanine Derivatives against Pathogenic Clinical Isolates” (PLoS ONE, 2016).
Values after ≈ are worked out from the molar mass of the structure shown. Read-outs that look alike come from different tables or passages of the source.

What was measured:
Escherichia coli Δ acrAB = experiment: MIC against E. coli 1411 and AcrAB efflux pump deficient E. coli SM1411Δ acrAB; format: cell-based
Protocol: (§1) The MIC of the rhodanines and control antibiotics, in the presence of a sub-inhibitory concentration of colistin or polymixin B nonapeptide (PMBN), against Gram-negative bacteria was evaluated as described before. The antibacterial activity of the rhodanines was further investigated against E. coli SM1411Δ acrAB, a strain that is deficient in the multidrug-resistant AcrAB efflux pump, as described before.

Pseudomonas aeruginosa [1] = experiment: MIC with/without PMBN, Pseudomonas aeruginosa; format: cell-based
Protocol: as §1

P. aeruginosa = experiment: Broth microdilution MIC, P. aeruginosa; format: cell-based; settings: Pseudomonas aeruginosa
Salmonella Typhimurium [2] = experiment: MIC with/without PMBN, Salmonella Typhimurium; format: cell-based
Protocol: as §1

B. licheniformis = experiment: Broth microdilution MIC/MBC, B. licheniformis; format: cell-based; settings: Bacillus licheniformis; for MBC: read-out: MBC; for MIC: read-out: MIC
Clostridium difficile = experiment: MIC against Clostridium difficile, anaerobic broth dilution; format: cell-based; settings: Clostridioides difficile
Protocol: Clinical isolates of C. difficile were cultured on anaerobic blood agar and incubated anaerobically using container gas pack system at 37° C for 48 hours. The colonies were then suspended in pre-reduced phosphate buffered saline (PBS) and adjusted to 0.5 McFarland standard then diluted 1:300 in pre-reduced Supplemented Brain Heart Infusion broth. The bacterial suspension was then transferred to each well of 96-well plates, the drugs were added to the first row of wells in the required concentrations and serially diluted along the plates. The plates were incubated again anaerobically using container gas pack system at 37° C for 48 hours. The (MIC) recorded was the lowest concentration of the drug showing no visible growth of the bacteria.

[3] = tested on: vancomycin resistant enterococci (VRE); experiment: Broth microdilution MIC50/MIC90, VRE panel; format: cell-based; settings: 10 VRE strains; for MIC90: read-out: MIC 90; for MIC50: read-out: MIC 50
Mycobacterium smegmatis = experiment: Broth microdilution MIC/MBC, Mycobacterium smegmatis; format: cell-based; settings: Mycolicibacterium smegmatis, ATCC14468, M. Smegmatis ATCC 14468; for MBC: read-out: MBC; for MIC: read-out: MIC
Acinetobacter baumannii [4] = experiment: MIC with/without sub-MIC colistin, Acinetobacter baumannii; format: cell-based
Protocol: as §1

MRSA USA300 = experiment: MIC against MRSA USA300 with and without 4% human serum albumin; format: cell-based, Staphylococcus aureus; settings: Staphylococcus aureus, read-out: MIC against MRSA USA300
How it was run: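 MIC measured in tryptic soy broth spiked with 4% HSA and without it, using CLSI broth microdilution on MRSA USA300. Value reported is the lowest concentration preventing bacterial growth.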

Acinetobacter baumannii [5] = experiment: Broth microdilution MIC, Acinetobacter baumannii; format: cell-based
Escherichia coli O157:H7 = experiment: MIC with/without PMBN, Escherichia coli O157:H7; format: cell-based
Protocol: as §1

B. cereus = experiment: Broth microdilution MIC/MBC, B. cereus; format: cell-based; settings: Bacillus cereus; for MBC: read-out: MBC; for MIC: read-out: MIC
From the text: The broth microdilution technique was used, followed by subculturing on agar plates that were rhodanine—free.

Bacillus Strains = experiment: Broth microdilution MIC50/MIC90 and MIC range, Bacillus strains panel; format: cell-based, Bacillus spp.; settings: 10 Bacillus strains
From the text: The broth microdilution technique was used, followed by subculturing on agar plates that were rhodanine—free. […] The MICs reported represent the lowest concentration of each compound necessary to inhibit bacterial growth and the MBCs represent the lowest concentration required to reduce the initial bacterial inoculum by ≥ 99.9%.

Pseudomonas aeruginosa [6] = experiment: MIC with/without sub-MIC colistin, Pseudomonas aeruginosa; format: cell-based
Protocol: as §1

Klebsiella pneumoniae = experiment: MIC with/without sub-MIC colistin, Klebsiella pneumoniae; format: cell-based
Protocol: as §1

Salmonella Typhimurium [7] = experiment: MIC with/without sub-MIC colistin, Salmonella Typhimurium; format: cell-based
Protocol: as §1

[8] = E.coli 1411 SM (Δ acrAB, AcrAB efflux pump deficient)
[9] = Pseudomonas aeruginosa ATCC 9721, PMBN (+) 4 μg/mL, read-out: MIC
[10] = Pseudomonas aeruginosa, ATCC9721
[11] = Salmonella Typhimurium ATCC 700720, PMBN (+) 4 μg/mL, read-out: MIC
[12] = Salmonella enterica, ATCC 700720 / TYPHIMURIUM
[13] = NCIB9375, B. licheniformis Gibson 46 (NCIB 9375) NR-2494
[14] = NRS712, B. licheniformis NRS 712 NR-2499
[15] = C. difficile Isolate-1 NR-13427
[16] = C. difficile Toxigenic Strain P8 NR-32888
[17] = Acinetobacter baumannii ATCC BAA747, colistin (+) […], read-out: MIC
[18] = Acinetobacter baumannii ATCC BAA19606, colistin (+) […], read-out: MIC
[19] = Acinetobacter baumannii, ATCCBAA747
[20] = Acinetobacter baumannii, ATCCBAA19606
[21] = Escherichia coli O157:H7 ATCC 35150, PMBN (+) 4 μg/mL, read-out: MIC
[22] = Escherichia coli O157:H7 ATCC 700728, PMBN (+) 4 μg/mL, read-out: MIC
[23] = NRS201, B. cereus NRS 201 NR-2488
[24] = Pseudomonas aeruginosa ATCC 921, colistin (+) […], read-out: MIC
[25] = Pseudomonas aeruginosa, ATCC921
[26] = Klebsiella pneumoniae ATCC BAA 2146, colistin (+) […]
[27] = Salmonella Typhimurium ATCC 700720, colistin (+) […], read-out: MIC

## O=C(O)[C@H](Cc1ccccc1)N1C(=O)/C(=C/c2cccc(Oc3ccc(Cl)c(Cl)c3)c2)SC1=S [Rh 1]
Escherichia coli Δ acrAB; E.coli 1411
  MIC: > 64 µM
Escherichia coli Δ acrAB; [8]
  MIC: > 64 µM
Pseudomonas aeruginosa [1]; [9]
  MIC: >64 µM
Pseudomonas aeruginosa [1]; [10]
  MIC: > 128 µM
P. aeruginosa; ATCC9721
  MIC: > 128 µM
P. aeruginosa; ATCC15442
  MIC: > 128 µM
Salmonella Typhimurium [2]; [11]
  MIC: >128 µM
Salmonella Typhimurium [2]; [12]
  MIC: > 128 µM
B. licheniformis; [13]
  MBC: 2 µM (≈ 1.06 µg/mL)
  MIC: 2 µM (≈ 1.06 µg/mL)
B. licheniformis; [14]
  MBC: 4 µM (≈ 2.12 µg/mL)
  MIC: 4 µM (≈ 2.12 µg/mL)
Clostridium difficile; C. difficile HM-88
  MIC: 4 µM (≈ 2.12 µg/mL)
Clostridium difficile; C. difficile HM-745
  MIC: 2 µM (≈ 1.06 µg/mL)
Clostridium difficile; C. difficile HM-746
  MIC: 4 µM (≈ 2.12 µg/mL)
Clostridium difficile; [15]
  MIC: 4 µM (≈ 2.12 µg/mL)
Clostridium difficile; [16]
  MIC: 4 µM (≈ 2.12 µg/mL)
[3]; Enterococcus, VRE
  MIC90: 8 µM (≈ 4.24 µg/mL)
[3]; Enterococcus
  MIC50: 8 µM (≈ 4.24 µg/mL)
Mycobacterium smegmatis
  MBC: 8 µM (≈ 4.24 µg/mL)
  MIC: 4 µM (≈ 2.12 µg/mL)
Acinetobacter baumannii [4]; [17]
  MIC: >64 µM
Acinetobacter baumannii [4]; [18]
  MIC: >64 µM
Acinetobacter baumannii [4]; [19]
  MIC: > 128 µM
Acinetobacter baumannii [4]; [20]
  MIC: > 128 µM
MRSA USA300; 24 h, Media TSB + 4% HSA
  MIC: > 64 µM
MRSA USA300; Media TSB
  MIC: 8 µM (≈ 4.24 µg/mL)
Acinetobacter baumannii [5]; ATCC13345
  MIC: > 128 µM
Acinetobacter baumannii [5]; ATCC17786
  MIC: > 128 µM
Escherichia coli O157:H7; [21]
  MIC: 8 µM (≈ 4.24 µg/mL)
Escherichia coli O157:H7; [22]
  MIC: >64 µM
Escherichia coli O157:H7; Escherichia coli, ATCC35150
  MIC: > 256 µM
Escherichia coli O157:H7; Escherichia coli, ATCC700728
  MIC: > 128 µM
B. cereus; B. cereus BAG1O-2 NR-28582
  MBC: 4 µM (≈ 2.12 µg/mL)
  MIC: 4 µM (≈ 2.12 µg/mL)
B. cereus; B. cereus BAG1X1-1 NR-28575
  MBC: 2 µM (≈ 1.06 µg/mL)
  MIC: 2 µM (≈ 1.06 µg/mL)
B. cereus; B. cereus BAG1X2-1 NR-28578
  MBC: 4 µM (≈ 2.12 µg/mL)
  MIC: 4 µM (≈ 2.12 µg/mL)
B. cereus; B. cereus G9241 NR-9564
  MBC: 4 µM (≈ 2.12 µg/mL)
  MIC: 4 µM (≈ 2.12 µg/mL)
B. cereus; B. cereus VD014 NR-22141
  MBC: 4 µM (≈ 2.12 µg/mL)
  MIC: 4 µM (≈ 2.12 µg/mL)
B. cereus; B. cereus VD115 NR-22148
  MBC: 4 µM (≈ 2.12 µg/mL)
  MIC: 4 µM (≈ 2.12 µg/mL)
B. cereus; B. cereus VD148 NR-22150
  MBC: 4 µM (≈ 2.12 µg/mL)
  MIC: 4 µM (≈ 2.12 µg/mL)
B. cereus; [23]
  MBC: 4 µM (≈ 2.12 µg/mL)
  MIC: 4 µM (≈ 2.12 µg/mL)
Bacillus Strains
  MIC50: 4 µM (≈ 2.12 µg/mL)
  MIC90: 4 µM (≈ 2.12 µg/mL)
Pseudomonas aeruginosa [6]; [24]
  MIC: >64 µM
Pseudomonas aeruginosa [6]; [25]
  MIC: > 128 µM
Klebsiella pneumoniae; [26]
  MIC: >64 µM
Klebsiella pneumoniae; Klebsiella pneumoniae, BAA2146
  MIC: > 128 µM
Salmonella Typhimurium [7]; [27]
  MIC: >64 µM
Salmonella Typhimurium [7]; [12]
  MIC: > 128 µM

## O=C(O)[C@H](Cc1ccccc1)N1C(=O)/C(=C/c2cccc(-c3ccc(Cl)c(Cl)c3)c2)SC1=S [Rh 2]
Escherichia coli Δ acrAB; E.coli 1411
  MIC: > 64 µM
Escherichia coli Δ acrAB; [8]
  MIC: > 64 µM
Pseudomonas aeruginosa [1]; [9]
  MIC: >64 µM
Pseudomonas aeruginosa [1]; [10]
  MIC: > 128 µM
P. aeruginosa; ATCC9721
  MIC: > 128 µM
P. aeruginosa; ATCC15442
  MIC: > 128 µM
Salmonella Typhimurium [2]; [11]
  MIC: >128 µM
Salmonella Typhimurium [2]; [12]
  MIC: > 128 µM
B. licheniformis; [13]
  MBC: 2 µM (≈ 1.03 µg/mL)
  MIC: 2 µM (≈ 1.03 µg/mL)
B. licheniformis; [14]
  MBC: 4 µM (≈ 2.06 µg/mL)
  MIC: 4 µM (≈ 2.06 µg/mL)
Clostridium difficile; C. difficile HM-88
  MIC: 4 µM (≈ 2.06 µg/mL)
Clostridium difficile; C. difficile HM-745
  MIC: 2 µM (≈ 1.03 µg/mL)
Clostridium difficile; C. difficile HM-746
  MIC: 2 µM (≈ 1.03 µg/mL)
Clostridium difficile; [15]
  MIC: 2 µM (≈ 1.03 µg/mL)
Clostridium difficile; [16]
  MIC: 8 µM (≈ 4.12 µg/mL)
[3]
  MIC90: 4 µM (≈ 2.06 µg/mL)
[3]; Enterococcus, VRE
  MIC90: 8 µM (≈ 4.12 µg/mL)
[3]; Enterococcus
  MIC50: 4 µM (≈ 2.06 µg/mL)
Mycobacterium smegmatis
  MBC: 8 µM (≈ 4.12 µg/mL)
  MIC: 4 µM (≈ 2.06 µg/mL)
Acinetobacter baumannii [4]; [17]
  MIC: >64 µM
Acinetobacter baumannii [4]; [18]
  MIC: >64 µM
Acinetobacter baumannii [4]; [19]
  MIC: > 128 µM
Acinetobacter baumannii [4]; [20]
  MIC: > 128 µM
MRSA USA300; 24 h, Media TSB + 4% HSA
  MIC: > 64 µM
MRSA USA300; Media TSB
  MIC: 4 µM (≈ 2.06 µg/mL)
Acinetobacter baumannii [5]; ATCC13345
  MIC: > 128 µM
Acinetobacter baumannii [5]; ATCC17786
  MIC: > 128 µM
Escherichia coli O157:H7; [21]
  MIC: 8 µM (≈ 4.12 µg/mL)
Escherichia coli O157:H7; [22]
  MIC: >64 µM
Escherichia coli O157:H7; Escherichia coli, ATCC35150
  MIC: > 256 µM
Escherichia coli O157:H7; Escherichia coli, ATCC700728
  MIC: > 128 µM
B. cereus; B. cereus BAG1O-2 NR-28582
  MBC: 4 µM (≈ 2.06 µg/mL)
  MIC: 4 µM (≈ 2.06 µg/mL)
B. cereus; B. cereus BAG1X1-1 NR-28575
  MBC: 2 µM (≈ 1.03 µg/mL)
  MIC: 2 µM (≈ 1.03 µg/mL)
B. cereus; B. cereus BAG1X2-1 NR-28578
  MBC: 4 µM (≈ 2.06 µg/mL)
  MIC: 2 µM (≈ 1.03 µg/mL)
B. cereus; B. cereus G9241 NR-9564
  MBC: 4 µM (≈ 2.06 µg/mL)
  MIC: 4 µM (≈ 2.06 µg/mL)
B. cereus; B. cereus VD014 NR-22141
  MBC: 2 µM (≈ 1.03 µg/mL)
  MIC: 2 µM (≈ 1.03 µg/mL)
B. cereus; B. cereus VD115 NR-22148
  MBC: 4 µM (≈ 2.06 µg/mL)
  MIC: 4 µM (≈ 2.06 µg/mL)
B. cereus; B. cereus VD148 NR-22150
  MBC: 2 µM (≈ 1.03 µg/mL)
  MIC: 2 µM (≈ 1.03 µg/mL)
B. cereus; [23]
  MBC: 4 µM (≈ 2.06 µg/mL)
  MIC: 4 µM (≈ 2.06 µg/mL)
Bacillus Strains
  MIC50: 2 µM (≈ 1.03 µg/mL)
  MIC90: 4 µM (≈ 2.06 µg/mL)
Pseudomonas aeruginosa [6]; [24]
  MIC: >64 µM
Pseudomonas aeruginosa [6]; [25]
  MIC: > 128 µM
Klebsiella pneumoniae; [26]
  MIC: >64 µM
Klebsiella pneumoniae; Klebsiella pneumoniae, BAA2146
  MIC: > 128 µM
Salmonella Typhimurium [7]; [27]
  MIC: >64 µM
Salmonella Typhimurium [7]; [12]
  MIC: > 128 µM
